US6551999B1, “Angiogenesis inhibitor” (Senju Pharmaceutical Co., Ltd., priority 1995, dated 2003)
Peptide text beside a SMILES is read from it. * marks the point of attachment. Tos = Cc1ccc(S(=O)(=O)*)cc1

What follows are molecules tested against T1, μ-calpain (Homo sapiens, UniProt P07384) (assay: μ-Calpain-inhibitory activity (casein substrate)). Details: 60 minutes at 30° C., pH 7.4, 4 mM calcium chloride.
T1 construct: purchased Nakalai Tesque
T1 sequence (P07384 1-714): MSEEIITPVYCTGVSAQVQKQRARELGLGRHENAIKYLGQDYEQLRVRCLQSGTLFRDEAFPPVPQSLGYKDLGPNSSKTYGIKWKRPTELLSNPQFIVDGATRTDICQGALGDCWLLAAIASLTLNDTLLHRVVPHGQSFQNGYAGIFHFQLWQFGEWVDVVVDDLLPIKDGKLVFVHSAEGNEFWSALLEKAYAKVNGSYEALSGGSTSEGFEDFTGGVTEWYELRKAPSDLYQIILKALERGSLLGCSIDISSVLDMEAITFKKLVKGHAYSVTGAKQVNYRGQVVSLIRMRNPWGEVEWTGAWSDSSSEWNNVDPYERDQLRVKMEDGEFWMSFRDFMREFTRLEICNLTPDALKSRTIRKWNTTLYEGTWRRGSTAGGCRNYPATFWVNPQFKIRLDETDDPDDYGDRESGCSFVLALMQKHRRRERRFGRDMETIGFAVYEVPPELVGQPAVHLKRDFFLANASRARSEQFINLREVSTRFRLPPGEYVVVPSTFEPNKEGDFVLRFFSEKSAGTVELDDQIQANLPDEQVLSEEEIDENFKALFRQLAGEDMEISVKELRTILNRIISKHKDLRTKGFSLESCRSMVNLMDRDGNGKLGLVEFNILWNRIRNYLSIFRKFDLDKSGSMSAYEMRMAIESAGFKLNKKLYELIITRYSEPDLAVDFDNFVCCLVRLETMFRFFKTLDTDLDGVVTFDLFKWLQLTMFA
T1 sequence (P04632 1-268 partner): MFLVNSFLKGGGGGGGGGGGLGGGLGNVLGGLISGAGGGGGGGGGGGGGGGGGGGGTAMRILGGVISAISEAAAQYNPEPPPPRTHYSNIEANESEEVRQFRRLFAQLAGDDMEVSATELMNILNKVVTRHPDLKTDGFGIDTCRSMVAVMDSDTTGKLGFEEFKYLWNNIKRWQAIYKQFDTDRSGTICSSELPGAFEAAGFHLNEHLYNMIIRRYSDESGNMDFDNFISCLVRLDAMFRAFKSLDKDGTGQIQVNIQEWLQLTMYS
Format: biochemical
Procedure: Thus, to a solution containing 0.5 mg/ml casein, 50 mM Tris-HCl (pH 7.4), 20 mM dithiothreitol, and 4 mM calcium chloride was added 2.5 μl of a dimethyl sulfoxide solution containing a varying concentration of the test drug as well as 0.03 unit of μcalpain to initiate the reaction. The final liquid volume was 250 μl. After 60 minutes of reaction at 30° C., 100 μl of the reaction mixture was transferred to another vessel, to which 50 μl of purified water and 100 μl of 50% Coumassie brilliant blue solution were added. […] As a control, 2.5 μl of dimethyl sulfoxide not containing the test drug was added and the mixture was treated in the same manner as above. […] Similarly, the value found by adding 0.2 mM EDTA in lieu of 4 mM aqueous calcium chloride solution was used as the blank value. […] [formula]

Row | SMILES | IC50 [nM]
1 | CSCC[C@H](NC(=O)[C@H]1O[C@@H]1C(=O)O)C(=O)N1CCN(c2ccccc2Cl)CC1 [Compound 29, (2s,3s)-3-[[[[(1s)-1-[[4-(2-chlorophenyl)-1-piperazinyl]carbonyl]-3-methylthio]propyl]amino]carbonyl]oxiranecarboxylic acid] | 600
2 | CC(C)C[C@@H](C=O)NC(=O)[C@@H](NS(=O)(=O)c1ccc2ccccc2c1)C(C)C [Compound 34, N-(2-naphthalenesulfonyl)-L-valyl-L-leucinal] | 10
3 | Cc1ccc(S(=O)(=O)N[C@H](C(=O)N[C@H](C=O)CC(C)C)C(C)C)cc1 [Compound 37, N-(4-methylphenylsulfonyl)-L-valyl-L-leucinal] (Tos-Val-Leu-aldehyde) | 28
4 | CC(C)C[C@@H](C=O)NC(=O)[C@@H](NS(=O)(=O)c1ccc2ccccc2c1)C(C)(C)C [Compound 38, N-(2-naphthalenesulfonyl)-L-tert-leucyl-L-leucinal] | 6100
5 | Cc1ccc(S(=O)(=O)N2CCN(C(=O)[C@H](CC(C)C)NC(=O)[C@H]3O[C@@H]3C(=O)NO)CC2)cc1 [Compound 33, (2s,3s)-3-[[[[(1s)-1-[[4-(4-methylphenylsulfonyl)-1-piperazinyl]carbonyl]-3-methyl]butyl]amino]carbonyl]oxiranecarbohydroxamic acid] | 1900
6 | O=C(O)[C@H]1O[C@@H]1C(=O)NCCC(=O)N1CCN(c2ccccc2Cl)CC1 [Compound 25, (2s,3s)-3-[[[2-[[4-(2-chlorophenyl)-1-piperazinyl]carbonyl]ethyl]amino]carbonyl]oxiranecarboxylic acid] | 41000
7 | CC(C)C[C@H](NC(=O)[C@H]1O[C@@H]1C(=O)O)C(=O)N1CCN(c2ccc(Cl)cc2)CC1 [Compound 19, (2s,3s)-3-[[[[(1s)-1-[[4-(4-chlorophenyl)-1-piperazinyl]carbonyl]-3-methyl]butyl]amino]carbonyl]oxiranecarboxylic acid] | 490
8 | NC(=O)CC[C@H](NC(=O)[C@H]1O[C@@H]1C(=O)O)C(=O)N1CCN(c2ccccc2Cl)CC1 [Compound 30, (2s,3s)-3-[[[[(1s)-1-[[4-(2-chlorophenyl)-1-piperazinyl]carbonyl]-3-carbamoyl]propyl]amino]carbonyl]oxiranecarboxylic acid] | 6000
9 | CC(C)C[C@H](NC(=O)[C@H]1O[C@@H]1C(=O)O)C(=O)N1CCN(c2cccc(Cl)c2)CC1 [Compound 18, (2s,3s)-3-[[[[(1s)-1-[[4-(3-chlorophenyl)-1-piperazinyl]carbonyl]-3-methyl]butyl]amino]carbonyl]oxiranecarboxylic acid] | 630
10 | O=C(O)[C@H]1O[C@@H]1C(=O)NC1(C(=O)N2CCN(c3ccc(F)cc3)CC2)CCCC1 [Compound 31, (2s,3s)-3-[[[(1s)-1-[[4-(4-fluorophenyl)-1-piperazinyl]carbonyl]-1-cyclopentyl]amino]carbonyl]oxiranecarboxylic acid] | 150000
11 | CC(C)[C@H](NC(=O)[C@H]1O[C@@H]1C(=O)O)C(=O)N1CCN(c2ccccc2Cl)CC1 [Compound 21, (2s,3s)-3-[[[[(1s)-1-[[4-(2-chlorophenyl)-1-piperazinyl]carbonyl]-2-methyl]propyl]amino]carbonyl]oxiranecarboxylic acid] | 950
12 | CC(C)C[C@H](NC(=O)[C@H]1O[C@@H]1C(=O)O)C(=O)N1CCN(c2ccccc2)CC1 [Compound 14, (2s,3s)-3-[[[[(1s)-1-[(4-phenyl-1-piperazinyl)carbonyl]-3-methyl]butyl]amino]carbonyl]oxiranecarboxylic acid] | 780

Continued, values first:

Row | IC50 [nM] | SMILES
13 | 14 | CC(C)[C@H](NS(=O)(=O)c1ccc(Cl)cc1)C(=O)N[C@H](C=O)Cc1ccccc1 [Compound 45, N-(4-chlorophenylsulfonyl)-L-valyl-L-phenylalaninal]
14 | 14 | CC(C)[C@H](NS(=O)(=O)c1ccc(Cl)cc1)C(=O)NC(C=O)CC1CCCCC1 (stereo partly drawn) [Compound 54, N-(4-chlorophenylsulfonyl)-L-valyl-L-cyclohexylalaninal]
15 | 23 | CC(C)[C@H](NS(=O)(=O)c1ccc(F)cc1)C(=O)N[C@H](C=O)Cc1c[nH]c2ccccc12 [Compound 49, N-(4-fluorophenylsulfonyl)-L-valyl-L-tryptophanal]
16 | 3200 | CC(C)(C)[C@H](NS(=O)(=O)c1ccc2ccccc2c1)C(=O)N[C@H](C=O)Cc1ccccc1 [Compound 42, N-(2-naphthalenesulfonyl)-L-tert-leucyl-L-phenylalaninal]
17 | 260 | CCCC[C@H](NS(=O)(=O)c1ccc(F)cc1)C(=O)N[C@H](C=O)CC(C)C [Compound 40, N-(4-fluorophenylsulfonyl)-L-norleucyl-L-leucinal]
18 | 27 | CC(C)[C@H](NS(=O)(=O)c1ccc(F)cc1)C(=O)N[C@H](C=O)Cc1ccccc1 [Compound 43, N-(4-fluorophenylsulfonyl)-L-valyl-L-phenylalaninal]
19 | 18 | Cc1ccc(S(=O)(=O)N[C@H](C(=O)N[C@H](C=O)Cc2ccccc2)C(C)C)cc1 [Compound 46, N-(4-methylphenylsulfonyl)-L-valyl-L-phenylalaninal] (Tos-Val-Phe-aldehyde)
20 | 8.3 | CC(C)[C@H](NS(=O)(=O)c1ccc2ccccc2c1)C(=O)NC(C=O)CC1CCCCC1 (stereo partly drawn) [Compound 53, N-(2-naphthalenesulfonyl)-L-valyl-L-cyclohexylalaninal]
21 | 1100 | CC(C)(C)[C@H](NS(=O)(=O)c1ccc2ccccc2c1)C(=O)N[C@H](C=O)Cc1c[nH]c2ccccc12 [Compound 51, N-(2-naphthalenesulfonyl)-L-tert-leucyl-L-tryptophanal]
22 | 360 | O=C[C@H](Cc1c[nH]c2ccccc12)NC(=O)C1(NS(=O)(=O)c2ccc3ccccc3c2)CCCCC1 [Compound 50, 1-(2-naphthalenesulfonylamino)cyclohexanecarbonyl-L-tryptophanal]
23 | 14 | CC(C)[C@H](NS(=O)(=O)c1ccc2ccccc2c1)C(=O)N[C@H](C=O)Cc1ccccc1 [Compound 44, N-(2-naphthalenesulfonyl)-L-valyl-L-phenylalaninal]
24 | 130 | CCC[C@H](NS(=O)(=O)c1ccc(F)cc1)C(=O)N[C@H](C=O)CC(C)C [Compound 41, N-(4-fluorophenylsulfonyl)-L-norvalyl-L-leucinal]
25 | 200 | O=C[C@H](Cc1ccccc1)NC(=O)C1(NS(=O)(=O)c2ccc3ccccc3c2)CCCCC1 [Compound 47]

Same assay, conditions: read-out: Calpain 50% inhibitory concentration (IC50); 60 minutes at 30° C., pH 7.4, 4 mM calcium chloride

Row | SMILES | IC50 [nM]
26 | COc1ccc(N2CCN(C(=O)[C@H](CC(C)C)NC(=O)[C@H]3O[C@@H]3C(=O)O)CC2)cc1 [Compound 20, (2s,3s)-3-[[[[(1s)-1-[[4-(4-methoxyphenyl)-1-piperazinyl]carbonyl]-3-methyl]butyl]amino]carbonyl]oxiranecarboxylic acid] | 1200
27 | CCOC(=O)[C@H]1O[C@@H]1C(=O)N[C@@H](CC(C)C)C(=O)N1CCN(c2ccc(F)cc2)CC1 [Compound 3, ethyl (2s,3s)-3-[[[[(1s)-1-[[4-(4-fluorophenyl)-1-piperazinyl]carbonyl]-3-methyl]butyl]amino]carbonyl]oxiranecarboxylate] | 47000
28 | CC(=O)NCSC[C@@H](NC(=O)[C@H]1O[C@@H]1C(=O)O)C(=O)N1CCN(c2ccccc2Cl)CC1 [Compound 28, (2s,3s)-3-[[[[(1s)1-[[4-(2-chlorophenyl)-1-piperazinyl]carbonyl]-2-acetylaminomethylthio]-ethyl]amino]carbonyl]oxiranecarboxylic acid] | 3900
